This is an account of results in PMC10451632, “Site Mutation Improves the Expression and Antimicrobial Properties of Fungal Defense” (Antibiotics, 2023).

In brackets after ≈: the same amount, converted by molar mass. Entries after “also recorded” stand apart in the source; their conditions may differ. Bridge positions count the residues as written; N and C are the ends. Peptide text beside a SMILES is read from it.

The subject of series [1] is Staphylococcus aureus ATCC 43300. Nature of the series: microbe, parasite or virus in culture. It counts as cell-based. Here is the method: The experimental operation of the expression of the Plectasin variant in P. pastoris in well plates, shaking flasks, and 5 L level fermentation was performed as referenced in previous studies. Candidates were identified through three different levels of screening. Firstly, a large number of transformants were screened through well plates to induce expression and determined by the inhibition zone assay (against S. aureus ATCC 43300). Secondly, the transformants with obvious inhibition zones were sequenced to obtain protein sequence information, then induced expression at the shake level. The supernatant was collected and purified to obtain the target protein; the anti-Staphylococcus aureus activity of the protein was detected by a MIC assay. Finally, the codons of candidate sequences were optimized, the expression vector was reconstructed, the optimal transformers were obtained, and the high-density cultivation was performed in a 5 L fermenter. The final agent was determined by high protein yield and good activity (Figure 2).
(§1) The MIC value of PN7 against bacteria was determined by the microtiter broth dilution method. Briefly, bacteria grown to the exponential phase were diluted into MHB; subsequently, 90 μL of bacterial suspension (10^5 CFUs/mL) was mixed with 10 μL of different concentrations of PN7 in a sterilized 96-well microtiter plate (Nunc). MIC values were recorded after incubation for 16–18 h at 37 °C based on the lowest concentrations of peptides in which no visible bacterial growth was observed.

Series [2] relates to P. aeruginosa CICC 21630. Nature of the series: MIC, microtiter broth dilution. It counts as cell-based, Pseudomonas aeruginosa. The settings on record: MHB, 10^5 CFUs/mL, 16–18 h at 37 °C. Here is the method:
as §1
(In broth dilution the organism is exposed to a series of concentrations in liquid medium.)

Series [3] deals with human keratinocyte HaCaT. Nature of the series: Cytotoxicity, MTT assay. In kind it is cell-based. The conditions noted are these: HaCaT cells, at 128 mg/mL (so in the source). Here is the method: (§2) The cytotoxicity of PN7 was evaluated by MTT (Beyotime, Shanghai, China) assay.
A general note: Formazan colour is commonly taken as a measure of viable cells.

The subject of series [4] is mouse macrophages RAW264.7. In words: Cytotoxicity, MTT assay. It counts as cell-based. Here is the method: as §2
Series [5] has as its system ICR mice. In words: In vivo toxicity, intraperitoneal injection. Also on record: species or system mouse. Here is the method:
ICR mice (6–8 weeks old, male, n = 5 per group; Charles River, Beijing, China) were intraperitoneally injected with PN7 (10 mg/kg, body weight) for 6 days, and the changes in mice behavior and body weight were recorded. At the same time, blood and organ tissues were collected for whole-blood cell and biochemical index analysis and H.E. staining.

Series [6] in a line: Thermal stability, MIC read-out. It counts as physicochemical. The settings on record: 1 h, 1280 μg/mL in physiological saline, triplicate. Here is the method:
PN7 dissolved in physiological saline solution was prepared into mother liquor with a concentration of 1280 μg/mL and incubated at different temperatures for 1 h. PN7 was dissolved in different pH buffers at 37 °C for 4 h. After double gradient dilution, MIC assays were used to detect the change in antibacterial activity.

The nature of series [7]: Stability in simulated gastric fluid, MIC read-out. In kind it is in vitro ADME. As for the experimental part:
(§3) The stability of peptide PN7 in SGF, SIF, and 25% or 50% mouse serum was carried out as previously described. A final concentration of 1280 μg/mL PN7 was prepared and incubated at 37 °C and then diluted twice. The MIC was determined.

The nature of series [8]: Serum stability, MIC read-out. It counts as in vitro ADME. The conditions noted are these: 25% or 50% mouse serum, 1280 μg/mL PN7, 37 °C, triplicate. As for the experimental part:
as §3

The mark [9] stands for this setting: 10 mg/kg daily intraperitoneal injection for 6 days, n = 5 per group.

As for `CC[C@H](C)[C@@H]1NC(=O)[C@H](CO)NC(=O)[C@H](CCCCN)NC(=O)[C@@H]2CSSC[C@@H](C(=O)N[C@@H](Cc3ccc(O)cc3)C(=O)O)NC(=O)[C@H](CCCCN)NC(=O)[C@@H]3CSSC[C@H](NC(=O)[C@H](CCCNC(=N)N)NC(=O)CNC(=O)[C@H](CC(=O)O)NC(=O)[C@H](CC(=O)O)NC(=O)[C@H](CCC(=O)O)NC(=O)[C@H](Cc4ccc(O)cc4)NC(=O)[C@H](Cc4c[nH]c5ccccc45)NC(=O)[C@@H]4CCCN4C(=O)CNC(=O)[C@H](CC(N)=O)NC(=O)[C@@H](NC(=O)CNC(=O)[C@H](Cc4ccccc4)NC(=O)CN)CSSC[C@H](NC(=O)[C@H](Cc4ccc(O)cc4)NC(=O)CNC(=O)CNC(=O)[C@H](CCCCN)NC(=O)[C@H](Cc4ccc(O)cc4)NC(=O)CNC(=O)[C@H](CCCCN)NC1=O)C(=O)N[C@@H](C)C(=O)N[C@@H](CCCCN)C(=O)NCC(=O)NCC(=O)N[C@@H](Cc1ccccc1)C(=O)N[C@@H](C(C)C)C(=O)N3)C(=O)N[C@@H](Cc1c[nH]cn1)C(=O)N[C@@H](CC(N)=O)C(=O)N[C@@H](Cc1c[nH]cn1)C(=O)N2` [PN7] (H-GFGCNGPWYEDDGRCHNHCKSIKGYKGGYCAKGGFVCKCY-OH; disulfide 4-30, 15-37, 19-39 (inferred); N-terminus and C-terminus assumed), the MIC in series [1] (S. aureus 43300, purified protein induced by shaking flasks) was 4 µg/mL (≈ 0.908 µM); in series [1] (microtiter broth dilution, MHB, 10^5 CFUs/mL, 16–18 h at 37 °C), 8 µg/mL (≈ 1.82 µM); in series [2] it was over 128 µg/mL. For the same compound, the cell viability in series [3] came to 85.36%; in series [4] (RAW264.7 cells, MTT, at 128 mg/mL (so in the source)) it was 92.77%. Also, the survival in series [4] (RAW264.7 and HaCaT cells (Figure 6B,C), 128 μg/mL) is over 85%. Further, in series [5] (setting [9]), the “histological morphology of mouse organs (H&E)” value is recorded as “showed no difference”. For the same compound, in series [5] (setting [9]), the “murine behavior and body weight” value is “did not observe a change in murine behavior or the loss of body weight”. Also, the “toxicity to mice, overall” value in series [5] (intraperitoneal injection for 6 d, observation 1 week) is given as “no toxicity; also recorded: no significant differences compared with the control group”. Also, the “thermal stability (antibacterial activity)” value in series [6] (20–80 °C) was “stable”. Moreover, in series [6] (100 °C), the “decrease of antibacterial activity” value is 1 fold. Besides, the “activity after incubation with simulated gastric juice (SGF)” value in series [7] (1280 μg/mL PN7, 37 °C, then two-fold dilution, triplicate) is given as “conserved full activity”. In series [7] (Figure 7E), the resistance to pepsin entry was “resistant to pepsin”. Besides, the serum stability entry in series [8] is “strong resistance to the serum effect; also recorded: stable in serum”.

By cell viability is commonly meant a read-out of living cells in per cent, often relative to untreated cells. Lower therefore signals more harm to the cells.
